Series [1] concerns Leishmania donovani. The series is described as follows: GSK_TCAKS: pIC50 Leishmania donovani Imaging: Infected Macrophages. Assay plates (384-well) were prepared by adding 250nL of compound to each well. For single shot assay, the final compound concentration was 5 uM. […] Automated image analysis was performed with a script developed on Acapella High Content Imaging and Analysis Software (PerkinElmer). Output: Percent of infected macrophage cells were reported for each well. To be noted: THP-1. It counts as functional, organism-based, Homo sapiens.

Series [2] has as its target Sterol 14-alpha demethylase (Trypanosoma cruzi (strain CL Brener), UniProt Q7Z1V1). In words: GSK_TCAKS: pIC50 CYP51 from Trypanosoma cruzi. It counts as functional.
The test system of series [3] is Trypanosoma cruzi. The series is described as follows: (§1) GSK_TCAKS: pIC50 Trypanosoma cruzi Imaging: Infected Cells. […] Cells were then washed once with PBS before infection. T. cruzi trypomastigotes, collected at days 5 to 8 after infection from LLC-MK2 parasite infected cultures, were allowed to swim out for 4h at 37C from a centrifuged pellet (2,500 rpm/10 min/room temperature). Trypomastigotes were then collected and counted in a CASY Cell Counter. Trypomastigotes, in supplemented DMEM, were added to H9c2 cultures in a multiplicity of infection of 1 and incubated for 18 h. Cells were washed once with PBS before incubation of the infected H9c2 monolayer with trypsin (Life-Technologies) to detach cells from the flask. Cells were counted in a CASY Cell Counter using a 150 um capillary and their density set at 5 * 10^4 cells per mL in supplemented assay DMEM. Infected H9c2 were dispensed into 384-well poly-lysine coated assay plates at 50uL per well using a Multidrop Combi dispenser. After seeding them, the plates were incubated at 37C, 5% CO2 for 72h. Cultures were then fixed and stained by addition of 50 uL of a solution containing 8% formaldehyde and 4 uM DRAQ5 DNA dye (BioStatus, UK) per well. […] Five images were collected per well for reliable statistical analysis. Automated image analysis was performed with a script developed on Acapella High Content Imaging and Analysis Software (PerkinElmer). Output: percentage of infected cells per well as a second infection marker. The series is classed as functional, organism-based, Rattus norvegicus. To be noted: H9c2, 4 h.

In series [4] the test system is Leishmania donovani. In words: GSK_TCAKS: pIC50 Leishmania donovani viability assay using fluorescence intensity. Assay plates (1536-well) were prepared by adding 30nL per well of compound. For single shot assay, the final compound concentration was 5uM. […] Briefly, eGFP LdBOB axenic amastigotes were harvested, fixed and counted in a CASY cell counter (Roche-Applied Science). A final concentration of 1.5 * 10^5 cells per well were prepared in amastigote media containing 500 U/mL penicillin/streptomycin (Invitrogen) and 6uL was dispensed to each experimental well using a Multidrop Combi dispenser (Thermo Scientific). 6uL of assay media was dispensed to control columns used as reference for 100% compound response. Following incubation for 72 h at 37C, 5% CO2, 2 uL of resazurin was added to each well at a final concentration of 0.5 mM in phosphate buffered saline (PBS) with IGEPAL (Sigma-Aldrich), 0.05% (v/v). The series is classed as functional, organism-based. Background: Resazurin is reduced to fluorescent resorufin, in cell work by metabolically active cells.

Series [5] is described as follows: GSK_TCAKS: pIC50 HepG2 human cell line viability assay using luminiscence. […] Seeding density was checked to ensure that new mono-layers were not more than 50% confluent at the time of harvesting. Cell suspension was added to 500 mL of the same medium at a final density of 1.2 * 10^5 cells/mL. This cell suspension was dispensed (25 uL, 3000 cells per well) into 384-well clear-bottom plates using a Multidrop Combi dispenser. Prior to addition of the cell suspension, the screening compounds (250 nL) were pre-dispensed into the plates with an Echo liquid handler. Plates were incubated for 48 h at 37C, 5% CO2. After incubation, plates equilibrated at room temperature for 30 min before proceeding to develop the luminescent signal. The signal developer, CellTiter-Glo Reagent, was allowed to equilibrate at room temperature for 30 min and added to the plates (25uL per well) using a Multidrop Combi dispenser. Plates were left for 10 min at room temperature for stabilization and then read using a ViewLux. It counts as toxicity, cell-based. (In ATP-based viability assays light output follows the ATP content of the culture.)

For series [6], the system named is Trypanosoma brucei brucei. The series is described as follows: GSK_TCAKS: pIC50 Trypanosoma brucei viability assay using luminiscence. Assay plates (1536-well) were prepared. T. brucei cultures were harvested and counted in a CASY cell counter. A parasite suspension was prepared at a final concentration of 5 * 10^4 cells/mL in complete HMI9 medium and 6uL was dispensed to all wells containing compounds using a Multidrop Combi dispenser. 6uL of HMI9 media with 0.4% DMSO were dispensed to control columns. Plates were incubated for 24 h at 37C, 5% CO2 then tempered for 10 min at room temperature. ATP content was quantified by adding 4 uL of CellTiter-Glo Reagent (Promega) according to the manufacturer's instructions. Luminescence was measured using a ViewLux. It counts as functional, organism-based. To be noted: Lister 427, CASY.

Series [7] relates to Trypanosoma cruzi. Described as §1, with “H2C9” for “Trypanosoma cruzi”, “H9c2 Host Cardiomyocytes.” for “Infected Cells.”, “Number” for “percentage”, “H9c2 Host Cardiomyocytes nuclei to determine drug-related cytotoxicity.” for “infected cells per well as a second infection marker.”. It counts as functional, organism-based, Rattus norvegicus. To be noted: H9c2, 4 h.
For series [8], the system named is Leishmania donovani. The series is described as follows: GSK_TCAKS: pIC50 Leishmania donovani Imaging: THP-1 Host Macrophages. Assay plates (384-well) were prepared by adding 250nL of compound to each well. For single shot assay, the final compound concentration was 5 uM. […] Automated image analysis was performed with a script developed on Acapella High Content Imaging and Analysis Software (PerkinElmer). Output: THP-1 cell count were reported for each well. It counts as functional, organism-based, Homo sapiens.

Series [9] concerns Trypanosoma cruzi. In words: GSK_TCAKS: pIC50 Trypanosoma cruzi viability assay using beta-GAL activity. This assay was run at single shot at 5uM compound concentration per well. The biological reagents consisted of NIH-3T3 host cells and trypomastigotes parasitic cells; both cell types were set to a 3.3 * 10^5 cells/mL dilution in assay DMEM by means of a CASY cell counter device using a 60um capillary. 6 uL of the mixture were dispensed per well (about 1 * 10^3 host-cells and 1 * 10^3 parasites) with a Multidrop Combi dispenser. […] In all wells, the percentage of DMSO never exceeded 0.5%. Plates incubated for four days at 37C, 5% CO2. The substrate used for the assay fluorescence intensity (FLINT) readout was resorufin-beta-D-galactopiranoside (Sigma-Aldrich) at 5uM per well. It was diluted in PBS supplemented with the soft detergent Igepal (Fluka). The series is classed as functional, organism-based, Mus musculus. To be noted: Tulahuen, NIH3T3.

For series [10], the system named is Trypanosoma brucei brucei. In words: GSK_TCAKS: pIC50 Trypanosoma brucei viability assay using fluorescence intensity. Assay plates (1536-well) were prepared by dispensing 25nL of compound solution per well using an Echo acoustic dispenser (Labcyte). It counts as functional, organism-based. To be noted: Lister 427, 2 h.
The test system of series [11] is Leishmania donovani. The series is described as follows: GSK_TCAKS: pIC50 Leishmania donovani Imaging: Amastigotes/Macrophages. Assay plates (384-well) were prepared by adding 250nL of compound to each well. For single shot assay, the final compound concentration was 5 uM. […] Automated image analysis was performed with a script developed on Acapella High Content Imaging and Analysis Software (PerkinElmer). Output: Average number of amastigotes per macrophage cell were reported for each well. To be noted: THP-1. The series is classed as functional, organism-based, Homo sapiens.

Series [12] concerns Trypanosoma cruzi. In words: GSK_TCAKS: pIC50 Trypanosoma cruzi Imaging: Amastigotes/Cell. […] Cells were then washed once with PBS before infection. T. cruzi trypomastigotes, collected at days 5 to 8 after infection from LLC-MK2 parasite infected cultures, were allowed to swim out for 4h at 37C from a centrifuged pellet (2,500 rpm/10 min/room temperature). Trypomastigotes were then collected and counted in a CASY Cell Counter. Trypomastigotes, in supplemented DMEM, were added to H9c2 cultures in a multiplicity of infection of 1 and incubated for 18 h. Cells were washed once with PBS before incubation of the infected H9c2 monolayer with trypsin (Life-Technologies) to detach cells from the flask. Cells were counted in a CASY Cell Counter using a 150 um capillary and their density set at 5 * 10^4 cells per mL in supplemented assay DMEM. Infected H9c2 were dispensed into 384-well poly-lysine coated assay plates at 50uL per well using a Multidrop Combi dispenser. After seeding them, the plates were incubated at 37C, 5% CO2 for 72h. Cultures were then fixed and stained by addition of 50 uL of a solution containing 8% formaldehyde and 4 uM DRAQ5 DNA dye (BioStatus, UK) per well. […] Five images were collected per well for reliable statistical analysis. Automated image analysis was performed with a script developed on Acapella High Content Imaging and Analysis Software (PerkinElmer). Output: number of amastigotes per cell as infection level measurement. It counts as functional, organism-based, Rattus norvegicus. To be noted: H9c2, 4 h.

The test system of series [13] is NIH3T3. In words: GSK_TCAKS: pIC50 NIH 3T3 cell line viability assay using luminiscence. Tissue culture surface treated assay plates (1536-well) were used. […] The 100% cells survival control was determined exposing the host-cells to a 0.5% DMSO concentration, whereas the 100% toxicity control was achieved by seeding the cells in presence of Amphotericin B at 50uM. Plates were incubated for four days at 37C, 5% CO2. The assay readout was developed by addition of 5uL of CellTiter-Glo Reagent following the manufacturer's instructions. Luminiscence was measured using a ViewLux. To be noted: Mus musculus, NIH3T3, 96 h. The series is classed as functional, cell-based.

Some results are limits rather than exact numbers.

Chain of Sterol 14-alpha demethylase (Q7Z1V1 whole entry): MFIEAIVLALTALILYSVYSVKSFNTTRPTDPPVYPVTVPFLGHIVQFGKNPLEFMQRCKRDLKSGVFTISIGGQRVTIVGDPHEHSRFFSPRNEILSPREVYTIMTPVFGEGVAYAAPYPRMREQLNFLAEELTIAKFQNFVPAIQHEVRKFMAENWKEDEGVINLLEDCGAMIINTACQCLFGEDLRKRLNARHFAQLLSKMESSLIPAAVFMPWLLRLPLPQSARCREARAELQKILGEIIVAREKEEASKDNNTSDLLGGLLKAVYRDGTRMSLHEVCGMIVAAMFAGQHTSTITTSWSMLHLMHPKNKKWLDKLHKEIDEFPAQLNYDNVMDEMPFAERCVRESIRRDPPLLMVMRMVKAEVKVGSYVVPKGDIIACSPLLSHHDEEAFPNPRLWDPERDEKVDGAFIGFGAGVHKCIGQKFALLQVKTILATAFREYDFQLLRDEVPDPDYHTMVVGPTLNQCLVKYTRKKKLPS

Broadly, the IC50 is the concentration that gives 50% inhibition. With `CCn1nccc1CN(C)C(=O)C=Cc1ccc(Cl)cc1`, the IC50 was more than 50.1 µM in series [1]; 0.316 µM in series [2]; 0.316 µM in series [3]; 15.8 µM in [4]; more than 39.8 µM in series [6]; more than 50.1 µM in series [7]. In addition, the IC50 in series [8] was more than 50.1 µM; in series [9], 0.224 µM; in series [10], 31.6 µM; in series [11], more than 50.1 µM; in [12] it was 0.316 µM; in [13], more than 50.1 µM. Further, the IC50 at 48 h in series [5] was more than 100 µM.

In the case of `N#Cc1cccc(CN2CCC(N(Cc3cccnc3)C(=O)c3cc(F)c(F)cc3F)CC2)c1`, the IC50 was more than 50.1 µM in [1]; 0.0501 µM in series [2]; 0.398 µM in [3]; more than 50.1 µM in series [4]; more than 39.8 µM in series [6]; more than 50.1 µM in series [7]. Besides, the IC50 in series [8] was more than 50.1 µM; in [9] it was 0.398 µM; in series [10] it was more than 39.8 µM; in series [11], 12.6 µM; in [12], 0.316 µM; in [13] it was 20 µM. In series [5], this compound showed an IC50 at 48 h of more than 100 µM.

As to `O=C(CCCn1cnc([N+](=O)[O-])n1)Nc1cccc(Cl)c1`, the IC50 in series [1] is more than 50.1 µM; in [2], 50.1 µM; in [3], 0.501 µM; in series [4], more than 50.1 µM; in series [6], more than 39.8 µM; in series [7] it was more than 50.1 µM. Moreover, the IC50 in series [8] was more than 50.1 µM; in series [9], 0.2 µM; in series [10] it was 5.01 µM; in [11] it was more than 50.1 µM; in series [12], 0.158 µM; in series [13], more than 50.1 µM. In series [5], this compound showed an IC50 at 48 h of more than 100 µM.

On to `Cc1nccn1C1CCCN(C(=O)c2cc3c(F)cccc3s2)C1` (stereo not given), for which the IC50 in series [1] is more than 50.1 µM; in series [2], 50.1 µM; in series [3], 1 µM; in series [4], 5.01 µM; in series [6], more than 39.8 µM; in series [7], more than 50.1 µM. Also, the IC50 in series [8] is more than 50.1 µM; in series [9], 0.631 µM; in [10] it was more than 39.8 µM; in series [11], more than 50.1 µM; in series [12] it was 0.794 µM; in series [13] it was 20 µM. Besides, the 50% inhibitory concentration (IC50) at 48 h in series [5] was more than 100 µM.

`O=[N+]([O-])c1cccc(Nc2cncc(-c3ccccc3CO)c2)c1`: the IC50 in series [1] is more than 50.1 µM; in series [2], 3.16 µM; in series [3], 0.398 µM; in series [4] it was 39.8 µM; in series [6] it was more than 39.8 µM; in series [7] it was more than 50.1 µM. Also, the IC50 was more than 50.1 µM in [8]; 0.316 µM in series [9]; more than 39.8 µM in series [10]; more than 50.1 µM in series [11]; 0.251 µM in [12]; 39.8 µM in series [13]. The same compound showed an IC50 at 48 h in [5] of more than 100 µM.

The record behind these values is ChEMBL document CHEMBL3430912, “GSK Tres Cantos Anti-Kinetoplastid Screening (TCAKS) Data”.
